We go through four compounds from patent US6747149B2, “Glucamine salts for treating hepatitis virus infections” (G. D. Searle & Co., priority 1999, dated 2004).

The test system of data set [1] is HepG2.2.15 Cells. The data set is described as follows: Viability of HepG2.2.15 cells, trypan blue exclusion. Type of data set: cell-based. Particulars: 3 days, cells excluding trypan blue. How it is done: (§1) The anti-hepatitis B virus activity and effect on cell viability of a number of different N-substituted-1,5-dideoxy-1,5-imino-D-glucitol compounds were assessed using an in vitro assay employing chronically hepatitis B virus secreting HepG2.2.15 cells. The method employed was essentially that described in Block et al. (1994) Proc. Natl. Acad. Sci. USA 91:2235-2239.

The test system of a further data set is Hepatitis B Virus. The experiment in a line: Hepatitis B virus secretion by chronically HBV secreting HepG2.2.15 cells (immunoprecipitated virion DNA, PCR). The conditions noted are these: for [] for 90% HBV secretion inhibition: based upon duplicate PCR results; for Relative amount of HBV secreted As A % of Control: 3 days, preS1 immunoprecipitation, PCR. Type of data set: cell-based. How it is done:
as §1

In another data set the test system is HBV. The data set is described as follows: Cell culture experiments with N-nonyl-DNJ: total HBV DNA and immune precipitated DNA. Type of data set: cell-based, hepatitis B virus. The source says:
(§2) There are two measures of drug efficacy: reduction in total HBV DNA (measured by quantitative PCR), and reduction in HBV DNA from capsids with intact surface glycoproteins, which is the active form of the virus (measured by an ELISA-like immune precipitation assay followed by quantitative PCR).

The subject of data set [2] is woodchuck hepatitis virus (WHV). The experiment in a line: Woodchuck model, N-nonyl-DNJ alone, BID oral dosing. Type of data set: in vivo.
From the text: In order to evaluate the efficacy of N-nonyl-DNJ in combination with 3TC (or other nucleoside or nucleotide analogs) against Hepatitis B virus in a woodchuck animal model, an monotherapy experiment using N-nonyl-DNJ alone was first conducted. This was necessary to determine if N-nonyl-DNJ has any anti-HBV effect in the woodchuck and, if N-nonyl-DNJ has a beneficial effect, to design a combination study based on the dose-response relationship of this drug alone.
Therefore, five groups of four animals each (all groups had both sexes, all but the control had two of each sex) were assigned to 0, 12.5, 25, 50, and 100 mg/kg/day with BID oral dosing. These were lab-reared wild animals. All animals were infected with woodchuck hepatitis virus (WHV) as neonates, and had been tested positive on serological tests for WHV surface antigen. Blood samples were drawn one week prior to dosing (−1 week), immediately before dosing (0 weeks), weekly during dosing (1, 2, 3, and 4 weeks), and after the end of dosing (5, 6, 8, and 10 weeks).
as §2
Before models are fitted to the data, a log transform was applied because: 1) the variation in IPDNA increases with increasing IPDNA values; the log transformation gives values with a nearly constant variation, and 2) it is expected that drug effects will appear as a constant multiplier of the IPDNA level. Because there are zero values of IPDNA, a small value (about ½ of the smallest non-zero value) was added to all values before the log transform.
Two approaches were used to model the changes in slope to week with dose of N-nonyl-DNJ: a linear modeling approach and a nonlinear model. Both approaches assume that the (linear) rate of change of the Log(IPDNA) measure over the dosing period is the “right” measure to reflect the effect of the drug on the virus. Both approaches are fit in stages, and the first stage is common to both approaches. First, a simple straight line regression model is fit using weeks 0-4 to predict log(IPDNA_+—10) separately for each animal by run combination. In the second stage, the response variable is the slope fitted in the first stage.
For the linear approach, a model is fit with slope to week as the response where run is considered a block, dose has a significant effect (almost all of this effect is due to a slope to dose), and the relevant error for testing the effect of dose is the variation among animals treated alike (after the adjustment for the runs as blocks). This is similar to using the calibration data within each run to first adjust each run's data to a common virus DNA concentration; the difference is that here the data from the woodchucks are used for the run adjustment rather than only the calibration data.
For the nonlinear approach, a four parameter logistic model is fit with the slope to week as the response and the dose as the predictor. Again, run is considered a block, but because no run has all weeks, it is not possible to fully reflect the blocking in the nonlinear approach. […]

Data set [3] has as its system HepG2.2.15 Cells. The data set is described as follows: MTT-based colorimetric assay of cell viability. How it is done:
as §1
In general terms: Tetrazolium dyes change colour on reduction, which living cells bring about.

Read-outs that look alike come from different tables or passages of the source. Marks after values point to notes of the source that are not given here.

Regarding `CCCCN1C[C@H](OC(C)=O)[C@@H](OC(C)=O)[C@H](OC(C)=O)[C@H]1COC(C)=O` [Example 2, 1,5-(Butylimino)-1,5-dideoxy-D-glucitol, Tetraacetate], the “% Viable +/− 1 S.D.” value in the data set on HepG2.2.15 Cells [1] (concentration [200]) is listed as 90 +/− 6 (n = 4) %; in the data set with HepG2.2.15 Cells [1] (concentration [1000]), 89 +/− 4 (n = 4) %. For the same compound, the “[] for 90% HBV secretion inhibition” value in the data set with Hepatitis B Virus was >200*s* microgs per ml. The entries for the “Relative amount of HBV secreted As A % of Control” value in the data set on Hepatitis B Virus (concentration [200]) and in the data set on Hepatitis B Virus (concentration [1000]) were 107.0 +/− 12 (n = 3) % and 38.0 +/− 15 (n = 3) %, respectively.
In the case of `CCCCCCCCCN1C[C@H](O)[C@@H](O)[C@H](O)[C@H]1CO` [N-nonyl-DNJ, N-(n-nonyl)-1,5-dideoxy-1,5-imino-D-glucitol], in the data set on HBV, the “effect on the immune precipitated DNA (IPDNA)” value is reported as “marked effect” and the “effect on total HBV DNA” value is “little or no effect”. Besides, the “effect on total HBV DNA measurements” value in data set [2] (all dose levels, pre-dose and dosed portions, quantitative PCR) is “no effect”. Moreover, in data set [2] (decrease of IPDNA, dosing weeks 0-4), the “average minimum slope observed” value is 0.31 fewer Log(IPDNA g/mL)/week. For the same compound, the “decrease of IPDNA at average minimum slope” value in data set [2] (dosing weeks 0-4) is “about 25 %/week”. In addition, in data set [2] (weeks 0-4, straight line fitted per animal), the “slope of IPDNA levels over the dosing period due to dose or plasma level” value is reported as “significant difference in the slope”. For the same compound, the “approximate effective monotherapy dose” value in data set [2] (woodchucks) is reported as “about 16 mg/kg/day”.
With `CCCCN1C[C@H](O)[C@@H](O)[C@H](O)[C@H]1CO` [NBDNJ, N-(n-butyl-)-1,5-dideoxy-1,5-imino-D-glucitol], the “[] for a 50% reduction in MMT” value with HepG2.2.15 Cells [3] is 100-200 microgs per ml. Also, the “[] for 90% HBV secretion inhibition” value in the data set on Hepatitis B Virus is reported as 0.5-1.0* microgs per ml. Also, the “Relative amount of HBV secreted As A % of Control” value with Hepatitis B Virus (concentration [200]) is recorded as 37.0 +/− 13 (n = 15) %; in the data set on Hepatitis B Virus (concentration [200], listed as 1), 85.0 +/− 5 (n = 8) %; in the data set with Hepatitis B Virus (concentration [1000]), 3.2 +/− 5 (n = 15) %; with Hepatitis B Virus (concentration [1000], listed as 1), 35.0 +/− 6 (n = 8) %.
Regarding “N-[2-(4-Trifluoromethylphenyl)-ethyl]-glucamine [Example 7]”, the “[] for a 50% reduction in MMT” value in the data set on HepG2.2.15 Cells [3] (HepG2.2.15 cells) is above 200 microgs per ml. Besides, in the data set on Hepatitis B Virus, the “[] for 90% HBV secretion inhibition” value is >200** microgs per ml.
